Experimental data from publication PMC6057649, “Development of NanoLuc-PEST expressing Leishmania mexicana as a new drug discovery tool for axenic- and intramacrophage-based assays” (PLoS Neglected Tropical Diseases, 2018).

System: NanoLuc-PEST expressing L. mexicana axenic amastigotes
Assay: microbe, parasite or virus in culture
Type: cell-based
Settings: for Relative Bioluminescence (%) / viability at 2 µM / viability at 10 µM: 72 hours, relative to DMSO only control, n = 4; for viability at 2 µM / viability at 10 µM: Leishmania mexicana, read-out: Relative Bioluminescence (%); for EC50: read-out: EC50, Axenic Amastigotes
[1] = hit compounds from the axenic amastigote screen, S3 Table

| Compound | Relative Bioluminescence (%) (2 µM compound) | Relative Bioluminescence (%) (10 µM compound) | other results |
| --- | --- | --- | --- |
| Cc1nnc(NC(=O)c2cn(-c3ccccc3)nc2-c2ccccc2C)o1 [MMV020320] | 47.21 | 0.21 | – |
| Cc1cc(=O)[nH]c(-n2nc(C)cc2C)n1 [MMV393995] | 27.43 | 3.00 | – |
| N#Cc1ccc(-c2cnc(N)c(-c3ccc(C(N)=O)cc3)n2)cc1 [MMV085499] | 98.08 | 54.27 | – |
| N=C(N)c1ccc(OCCCCCOc2ccc(C(=N)N)cc2)cc1 [MMV000062, Pentamidine, reference compound] | – | – | viability at 2 µM (2 µM compound): 72.2%; viability at 10 µM (10 µM compound): 96.8% |
| O=C(c1ccc(F)cc1)N(CCNc1ccccc1)c1ccccc1 [MMV676204] | 116.49 | 99.37 | – |
| Cc1nc(-c2cccc(NCc3ccccc3)c2)[nH]c1C [MMV023227] | 80.48 | 64.23 | – |
| Cc1cc(OCC(=O)Nc2ccc(C(C)C)cc2)n(C)c(=O)c1C#N [MMV1198433] | 82.52 | 91.16 | – |
| CCCNC(=O)N1CCC2(CC1)CC(=O)c1cc(C)ccc1O2 [MMV085230] | 100.02 | 105.91 | – |
| COc1cccc(-n2nnnc2S(=O)(=O)Cc2ccccc2)c1 [MMV676388] | 0.56 | 0.16 | EC50 [1]: 730 nM |
| CC(=O)NCC1CN(c2ccc(-c3ccc(CO)cc3)c(F)c2)C(=O)O1 (centres unmarked) [MMV688508] | 98.16 | 65.29 | – |
| N=C(N)Nc1ccc(-c2ccc(-c3ccc(N=C(N)N)c(Cl)c3)o2)cc1Cl [MMV688271] | 98.92 | 56.10 | – |
| CO[C@@H]1CN(c2ccc(C#CC3(O)CN4CCC3CC4)c(Cc3ccccc3)n2)C[C@H]1O (some centres unmarked) [MMV688415] | 63.04 | 31.88 | – |
| CCCCOC(=O)Nc1cc2[nH]c(C3CCCCC3)nc2cc1N1CCCC1 [MMV687730] | 85.81 | 52.52 | – |
| COc1ccc2nc(C)cc(OCC(=O)NCc3ccccc3)c2c1 [MMV687189] | 92.36 | 81.16 | – |
| CNC(=O)c1cc(S(=O)(=O)N2CCN(c3ccccn3)CC2)cs1 [MMV020136] | 108.03 | 122.06 | – |
| O=C(Nc1nc(-c2ccccn2)cs1)C1CC1c1ccccc1F (centres unmarked) [MMV1028806] | 58.01 | -0.60 | – |
| CC(C)(C)OC(=O)N1CCN(c2nccc(-c3ccc(-c4ccc(Cl)cc4)s3)n2)CC1 [MMV688416] | 76.11 | 66.54 | – |
| CC1COC(Cn2cncn2)(c2ccc(Oc3ccc(Cl)cc3)cc2Cl)O1 (centres unmarked) [MMV688943, Difenoconazol] | 26.19 | 8.96 | – |
| COc1cc(C2=NCCN2)ccc1-c1cn(-c2cccc(C3=NCCN3)c2)nn1 [MMV688407] | 99.20 | 50.94 | – |
| CCN(CC)CCCN1CCN(C(=O)c2cccc(-c3noc(C(F)(F)F)n3)c2)CC1 [MMV022236] | 74.51 | 94.61 | – |

| Compound | Relative Bioluminescence (%) (2 µM compound) | Relative Bioluminescence (%) (10 µM compound) | other results |
| --- | --- | --- | --- |
| CO/C=C(/C(=O)OC)c1ccccc1Oc1cc(Oc2ccccc2C#N)ncn1 [MMV021057, Azoxystrobin] | 62.63 | 55.66 | – |
| CN(C(=O)c1cc2c(-c3cncnc3)cccc2[nH]1)c1ccccc1 [MMV024443] | 64.75 | 32.60 | – |
| NCC(c1cccs1)S(=O)(=O)c1ccccc1 (centres unmarked) [MMV688557] | 71.96 | 58.46 | – |
| CC(C)C(C(=O)Nc1ccc(S(=O)(=O)N(C)C)cc1)c1ccc(Cl)cc1 (centres unmarked) [MMV020391] | 89.71 | 17.09 | – |
| O=C(Nc1nnc(-c2ccc(Cl)cc2)o1)c1cccc(C(F)(F)F)c1 [MMV102872] | 0.33 | -0.65 | EC50 [1]: 810 nM |
| CCOC(=O)c1cc(-c2csc(Nc3c(C)cc(C)cc3C)n2)on1 [MMV676461] | 79.84 | 54.88 | – |
| O=C(NCCc1ccccc1)c1cc(-c2cccnc2)cnc1NCC1CC1 [MMV026490] | 92.31 | 60.31 | – |
| CCn1ncc2c(NC3CCOCC3)c(CNC(=O)c3ccnn3C)c(C)nc21 [MMV026356] | 76.21 | 65.05 | – |
| C[C@H](c1ccc2c(c1)CCCC2)N(C)c1ncc2c(N)nc(N)nc2n1 [MMV690103] | 59.86 | 0.48 | – |
| COC(=O)c1c(NC(=O)c2cc3ccccc3oc2=O)sc2c1CCN(Cc1ccccc1)C2 [MMV676480] | 96.73 | 61.83 | – |
| Clc1ccc(Cl)c(CO[C@H]2CCCC[C@@H]2n2ccnc2)c1 [MMV676048] | 104.27 | 53.90 | – |
| O=C(CN1CCOCC1)Nc1ccc2ncnc(Nc3ccc(OCc4cccc(F)c4)c(Cl)c3)c2c1 [MMV688274] | 72.23 | 7.31 | – |
| CCC(Sc1nc2ccccc2o1)C(=O)Nc1nccs1 (centres unmarked) [MMV676383] | 136.33 | 127.92 | – |
| N=C(N)c1ccc(-c2cc(-c3ccccc3)on2)cc1 [MMV688514] | 40.80 | 34.58 | – |
| O=C(Nc1ccccc1-c1nc2c(C(=O)O)cccc2o1)c1ccccc1 [MMV676162] | 7.36 | -0.97 | EC50 [1]: 960 nM |
| CC(C)/N=c1\cc2n(-c3ccc(Cl)cc3)c3ccccc3nc-2cc1Nc1ccc(Cl)cc1 [MMV687800, Clofazimine, reference compound] | – | – | viability at 2 µM (2 µM compound): 41.1%; viability at 10 µM (10 µM compound): 37.9% |
| COC(=O)Nc1nc2ccc(C(=O)c3ccccc3)cc2[nH]1 [MMV003152, Mebendazole, reference compound] | – | – | viability at 2 µM (2 µM compound): 0.9%; viability at 10 µM (10 µM compound): -0.49%; EC50, Axenic Amastigotes [1]: could not be resolved |
| O=C(N[C@H](Cc1ccccc1)C(=O)Nc1ccccc1N1CCOCC1)c1cccs1 [MMV688845] | 64.60 | 67.13 | – |
| O=C(Nc1nc(-c2ccccn2)cs1)c1cncn1-c1ccccc1 [MMV676512] | 15.66 | -0.58 | – |
| COc1cncc(-c2cncc(N3CCN(c4ccncc4)CC3)n2)c1 [MMV085071] | 93.07 | 82.11 | – |

| Compound | Relative Bioluminescence (%) (2 µM compound) | Relative Bioluminescence (%) (10 µM compound) | other results |
| --- | --- | --- | --- |
| CC(=O)N(CCN(C(=O)c1ccc(F)cc1)c1ccccc1)c1ccccc1 [MMV676064] | 105.34 | 123.90 | – |
| CO[C@@H](C(=O)N1Cc2[nH]nc(NC(=O)c3ccc(N4CCN(C)CC4)cc3)c2C1)c1ccccc1 [MMV676600] | 110.66 | 114.36 | – |
| Cc1nc2ccccn2c1C(=O)NCc1ccc(Cl)cc1 [MMV012074] | 98.27 | 123.86 | – |
| CC(C)(C)c1ccc(N[C@@H]2CCCC[C@H]2NC(=O)c2ccco2)cc1 [MMV675969] | 104.76 | 77.56 | – |
| CC(C)=CCC/C(C)=C\CNCCNC1C2CC3CC(C2)CC1C3 (centres unmarked) [MMV687273] | 68.48 | 81.32 | – |
| Clc1ccc(CN2CCN(C3=NCCN3)CC2)cc1Cl [MMV689060] | 99.56 | 112.63 | – |
| OCc1ccc(-c2cncc(Nc3cccc(Cl)c3)c2)cc1 [MMV026468] | 116.14 | 104.46 | – |
| Cc1cc(C(=O)Nc2ccc(-c3ccccc3)cc2)no1 [MMV020152] | 89.71 | 108.81 | – |
| Nc1nc2cc(-c3cncc(Oc4ccc(F)cc4)c3)ccc2[nH]1 [MMV687248] | 81.54 | 88.99 | – |
| O=C(Nc1cccc(Cl)c1)c1cnc(N2CCN(c3ccncc3)CC2)c(Cl)c1 [MMV024406] | 85.94 | 93.72 | – |
| Nc1ncnc2c1c(-c1cnc3ccccc3c1)nn2CC1CCNCC1 [MMV688411] | 105.51 | 65.85 | – |
| O=C(C1CCN(c2nnnn2-c2ccccc2)CC1)N1CCc2ccccc2C1 [MMV009135] | 83.57 | 73.86 | – |
| CCc1ccc([C@@H]2C[C@H](C(F)(F)F)n3ncc(C(=O)NCc4ccc(OC)cc4)c3N2)cc1 [MMV687180] | 49.23 | 1.44 | – |
| Nc1ncc(-c2cn[nH]c2)cc1-c1nc2cc(Cl)cnc2[nH]1 [MMV023370] | 62.35 | 54.43 | – |
| COc1ccccc1C(C)NCC(=O)Nc1cc(C(F)(F)F)ccc1Cl (centres unmarked) [MMV020321] | 118.65 | 131.13 | – |
| FC(F)(F)c1cccc(-c2nc3c(NCc4ccncc4)nccc3[nH]2)c1 [MMV032967] | 79.58 | 75.35 | – |
| c1ccc(Oc2ccc(-c3cc(N4CCNCC4)[nH]n3)cc2)cc1 [MMV687706] | 85.99 | 75.35 | – |
| COc1ccc(OC(C)C(=O)Nc2ccc(Cl)cc2C)cc1 (centres unmarked) [MMV202458] | 83.71 | 79.97 | – |
| CCc1cc(=O)n(C)c(SC(C)C(=O)Nc2ccc(F)cc2)n1 (centres unmarked) [MMV688980] | 76.34 | 48.08 | – |
